In publication PMC8279406 (Journal of Medicinal Chemistry, 2021):

Legend:
[1] = target: T1, human αvβ8 integrin (Homo sapiens, UniProt P06756+P26012); test: LAP(TGF-β1)-αvβ8 competitive solid-phase ELISA binding assay; conditions: for IC50: competitive ELISA, immobilized LAP, soluble integrin
T1 construct: purchased R&D Systems (Biotechne brand) 4135-AV
Protocol: The affinity and selectivity of the integrin peptide ligands were ascertained according to a modified method previously reported by some of us.[33],[47] The binding was determined in a competitive solid-phase binding assay using extracellular matrix proteins, soluble integrins, and pertinent integrin-specific antibodies in an enzyme-linked immunosorbent assay (ELISA).
The experimental procedure is as described for the αvβ6 assay, except for the following modifications. The plates were coated, washed, and blocked as described above. Soluble integrin αvβ8 was mixed with an equal volume of serially diluted inhibitors resulting in a final integrin concentration of 0.25 μg/mL and 0.0032–10 μM for the inhibitors. The primary and secondary antibodies are the same as in the integrin αvβ6 assay. Visualization and analysis were performed as described above. Each plate contained a linear peptide ([…]) as the internal standard.[3]

[2] = target: alphaVbeta5 (Homo sapiens, UniProt P06756+P18084); test: alphaVbeta5 binding affinities (supplementary CSV only); conditions: unit inferred
Text: Supplement jm1c00533_si_002.csv, table | column: alphaVbeta5 Binding affinities (IC50)

[3] = tested on: recombinant R8102 HSV-1 strain; test: Infection neutralization assay, 293T cells, R8102 HSV-1, β-galactosidase readout; type: cell-based; conditions: for effect on HSV-1 infection (in words): increasing concentrations, 1 h prior to infection and 90 min during attachment
Text: The binding of HSV-1 gH/gL to either αvβ6 or αvβ8 results in the dissociation of gL from the heterodimer, which, in turn, can favor HSV entry into cells.[27] […] R1.302, a nectin1-neutralizing mAb, was used as a positive control. In the first set of experiments, 293T cells, expressing both the αvβ6 and αvβ8 integrins, were alternatively exposed to increasing concentrations of the integrin-binding peptides and R1.302 before and during the infection by the recombinant R8102 HSV-1 strain. This virion carries, indeed, a lacZ reporter gene under the control of the α27 promoter, whose expression analysis allows for readily quantifying the infectivity.[59] […] Remarkably, these preliminary results were in agreement with the known interchangeable and additive roles played by αvβ6 and αvβ8 integrins upon HSV-1 infection.[26]
Figure 3 Inhibition of HSV-1 infection. 293T cells were exposed to increasing concentrations of the indicated peptides for 1 h prior to infection and during virus attachment for another 90 min. Infection was induced using the recombinant R8102 HSV-1 strain and measured after 8 h as β-galactosidase activity, using o-nitrophenyl-D-galactopyranoside (ONPG) as a substrate. The assays were run in triplicate. Bars show standard deviation (SD).
The experiments were performed using 293T cells in 96-well plates with extracellular virions of R8102 at an input multiplicity of infection of 5 PFU/cell. Cells were exposed to increasing concentrations of the peptides for 1 h at 37 °C, and the viral inoculum was added in the presence of peptides for 90 min at 37 °C. After the removal of the inoculum and rinsing with DMEM containing 1% FBS, the cells were incubated without peptides for 8 h. The same protocol was followed for R1.302 mAb that was used as a positive control. The infection was quantified as β-Gal activity using o-nitrophenyl-D-galactopyranoside (ONPG) as a substrate.[86]

[4] = tested on: nectin1; test: Integrin internalization assay, surface nectin1 control by flow cytometry; type: cell-based; conditions: J cells with nectin1, αvβ6 and αvβ8, 700 μM, 1 h at 37 °C
Protocol: Figure 5 Integrin internalization assay. J cells were transfected with a low amount (75 ng of DNA/24 well) of nectin1 plus αvβ6 integrin (300 ng of DNA/24 well) and αvβ8 integrin (300 ng of DNA/24 well). Then, 48 h after transfection, the cells were exposed to 700 μM peptides for 1 h at 37 °C. Cells derived from samples treated or not treated with peptides were incubated for 1 h at 4 °C with FAB4155A (mAbβ6), FAB4775A (mAbβ8), and R1.302 (mAbnectin1) mAbs. Samples incubated with R1.302 were washed and subsequently incubated for 1 h at 4 °C with the allophycocyanin (APC) mouse secondary antibody. Integrin and nectin1 surface expression levels were quantified as flow cytometry expression of the APC mean fluorescence intensity (MFI) of gated cells. Histograms represent the average of triplicates ± SD.
J cells were transfected with low amounts of plasmids encoding nectin1 (75 ng of DNA/24 well), plus plasmids encoding αv + β6 and αv + β8 integrins (300 ng of DNA/24 well) by means of Lipofect 2000 (Life Technologies). Then, 48 h after transfection, the cells were incubated with a single concentration of peptides (700 μM) for 1 h at 37 °C. At the end of the treatment with the peptides, half of the sample was used to visualize the expression of integrins β6 and β8 or of nectin1 used as a control in a flow cytometry assay. […]

[5] = tested on: gHsolST; test: gH binding assay, gHsolST binding to transfected J cells; type: cell-based, HSV-1; conditions: J cells with nectin1, αvβ6 and αvβ8, 700 μM peptide, 2 μM gHsolST
Protocol: To further verify this hypothesis, the soluble form of gH (gHsolST) was used in a soluble protein in the cell-binding assay on J cells transfected with nectin1 and the αvβ6 and αvβ8 integrins, treated or untreated with each peptide.
Figure 6 gH binding assay. J cells were transfected with a low amount (75 ng of DNA/24 well) of nectin1 plus αvβ6 integrin (300 ng of DNA/24 well) and αvβ8 integrin (300 ng of DNA/24 well). Then, 48 h after transfection, the cells were exposed to 700 μM peptides for 1 h at 37 °C. Cells derived from samples treated or not treated with peptides were incubated for 1 h at 4 °C with gHsolST or gBsolST. Samples were washed and subsequently incubated for 1 h at 4 °C with phycoerythrin (PE)-conjugated mAb to the One-STrEP tag (Strep-Tactin). gHsolST and gBsolST binding to the cell surface were quantified as the flow cytometry expression of the PE mean fluorescence intensity (MFI) of gated cells. Histograms represent the average of triplicates ± SD.
The remaining half of the samples were used for the gH binding assay. […] Control cells were incubated with 2 μM gBsolST in 100 μL of the same buffer used for gHsolST and the binding of soluble protein was detected as described for the gH binding assay. Cells were analyzed by cytofluorimetric analyses using an AccuriC6 flow cytometer (Becton Dickinson). […]

| SMILES | fold more potent than 1 for αvβ8 ([1]; 60 vs 174 nM) [fold] | IC50 [1] [nM] | IC50 [2] [nM] | effect on HSV-1 infection (in words) [3] | surface expression of nectin1 (in words) [4] | binding of gHsolST to cells (in words) [5] | inhibition of HSV infection ([3]; 700 μM) [%] | maximum inhibition of HSV-1 infection ([3]; at 1000 μM) [%] |
| --- | --- | --- | --- | --- | --- | --- | --- | --- |
| CN1C(=O)[C@H](C2CCCCC2)NC(=O)[C@H](CC(=O)O)NC(=O)CNC(=O)[C@H](CCCNC(=N)N)NC(=O)CC[C@H]1C(N)=O [compound 6, [Arg-Gly-Asp-Chg-(NMe)Glu]-CONH2] | 3 | 60 ± 2 | > 5000 | able to inhibit HSV-1 infection in a dose-dependent manner | not altered | strongly reduced |  |  |
| N=C(N)NCCC[C@@H]1NC(=O)CC[C@@H](C(N)=O)NC(=O)[C@H](C2CCCCC2)NC(=O)[C@H](CC(=O)O)NC(=O)CNC1=O [compound 1, [Arg-Gly-Asp-Chg-Glu]-CONH2] |  | 174 ± 31 | > 5000 | able to inhibit HSV-1 infection in a dose-dependent manner | not altered | only partially reduced | 40 | 50 |
